Patent US8399462B2, “JNK modulators” (Roche Palo Alto LLC, priority 2006, dated 2013)

| melting point | SMILES |
| --- | --- |
| 225 to 226 °C | CS(=O)(=O)CCCOc1cccc2c(-c3ccnc(N[C@H]4CC[C@H](NS(C)(=O)=O)CC4)n3)noc12 [Compound 306, N-(4-{4-[7-(3-methane-sulfonyl-propoxy)-benzo[d]isoxazol-3-yl]-pyrimidin-2-ylamino}-cyclohexyl)-methane-sulfonamide] |
| 214 to 215 °C | CC(C)(O)c1cccc2c1ccn2-c1ccnc(N[C@H]2CC[C@H](N(CCO)S(C)(=O)=O)CC2)n1 [Compound 240, N-(2-hydroxyethyl)-N-(4-{4-[4-(2-hydroxy-prop-2-yl)-indol-1-yl]-pyrimidin-2-ylamino}-cyclohexyl)-methane-sulfonamide] |
| 188.2 to 189.2 °C | CC(C)Oc1cccc2c1cnn2-c1ccnc(N[C@H]2CC[C@H](O)CC2)n1 [Compound 167, 4-[4-(4-isopropoxy-indazol-1-yl)-pyrimidin-2-ylamino]-cyclohexanol] |
| 249 to 250 °C | CS(=O)(=O)CCCOc1cccc2c1ccn2-c1ccnc(N[C@H]2CC[C@H](C(N)=O)CC2)n1 [Compound 250, 4-{4-[4-(3-methane-sulfonyl-propoxy)-indol-1-yl]-pyrimidin-2-ylamino}-cyclohexane-carboxylic acid amide] |
| 206 to 207 °C | CS(=O)(=O)CCCOc1cccc2c1cnn2-c1ccnc(N[C@H]2CC[C@H](N3CCCS3(=O)=O)CC2)n1 [Compound 215, [4-(1,1-dioxo-isothiazolidin-2-yl)-cyclohexyl]-{4-[4-(3-methane-sulfonyl-propoxy)-indazol-1-yl]-pyrimidin-2-yl}-amine] |
| 196 to 198 °C | CC1(C)OC[C@@H](COc2cccc3c2cnn3-c2ccnc(N[C@H]3CC[C@H](C(=O)N4CCCC4)CC3)n2)O1 (stereo in doubt) [Compound 127, (4-{4-[4-(2,2-dimethyl-[1,3]dioxolan-4-yl-methoxy)-indazol-1-yl]-pyrimidin-2-ylamino}-cyclohexyl)-pyrrolidin-1-ylmethanone] |
| 217.3 to 219 °C | CN(C)C(=O)[C@H]1CC[C@H](Nc2nccc(-n3ncc4c(OCc5ccccn5)cccc43)n2)CC1 [Compound 150, 4-{4-[4-(pyridine-2-yl-methoxy)-indazol-1-yl]-pyrimidin-2-ylamino}-cyclohexanecarboxylic acid dimethylamide] |
| 190 to 191 °C | CN(C)S(=O)(=O)CCCOc1cccc2c1cnn2-c1ccnc(N[C@H]2CC[C@H](C(=O)N3CCC(O)CC3)CC2)n1 [Compound 229, 3-(1-{2-[4-(4-hydroxy-piperidin-1-carbonyl)-cyclohexylamino]-pyrimidin-4-yl}-1H-indazol-4-yloxy)-propane-1-sulfonic acid dimethylamide] |
| 115 to 116 °C | CS(=O)(=O)CCCOc1cccc2c1ccn2-c1ccnc(N[C@H]2CC[C@H](C(=O)N3CCC(F)CC3)CC2)n1 [Compound 239, (4-fluoro-piperidin-1-yl)-(4-{4-[4-(3-methane-sulfonyl-propoxy)-indol-1-yl]-pyrimidin-2ylamino}-cyclohexyl)-methanone] |
| 250 to 251 °C | CS(=O)(=O)N[C@H]1CC[C@H](Nc2nccc(-n3ncc4c(OCCCS(N)(=O)=O)cccc43)n2)CC1 [Compound 228, 3-{1-[2-(4-methane-sulfonylamino-cyclo-hexylamino)-pyrimidin-4-yl]-1H-indazol-4-yloxy}-propane-1-sulfonic acid amide] |
| 214 to 215 °C | CC(C)(CO)COc1cccc2c1cnn2-c1ccnc(N[C@H]2CC[C@H](C(=O)N3CC[C@@H](O)C3)CC2)n1 (stereo in doubt) [Compound 261, (4-{4-[4-(3-hydroxy-2,2-dimethyl-propoxy)-indazol-1-yl]-pyrimidin-2-ylamino}-cyclohexyl)-(3-hydroxy-pyrrolidin-1-yl)-methanone] |
| 189.2 to 190 °C | CC1(C)OC[C@@H](COc2cccc3c2cnn3-c2ccnc(N[C@H]3CC[C@H](O)CC3)n2)O1 (stereo in doubt) [Compound 98, 4-{4-[4-(2,2-dimethyl-[1,3]dioxolan-4-ylmeth-oxy)-indazol-1-yl]-pyrimidin-2-ylamino}-cyclohexanol] |
| 208.4 to 209 °C | CN([C@H]1CC[C@H](Nc2nccc(-n3ncc4c(OCCCO)cccc43)n2)CC1)S(C)(=O)=O [Compound 178, N-(4-{4-[4-(3-hydroxy-propoxy)indazole-1-yl]-pyrmidin-2-ylamino}-cyclohexyl)-N-methyl-methanesulfonamide] |
| 203.8 to 204.9 °C | CS(=O)(=O)N[C@H]1CC[C@H](Nc2ncc(Cl)c(-n3ccc4ccccc43)n2)CC1 [Compound 118, N-[4-(5-chloro-4-indol-1-ylpyrimidin-2-yl-amino)-cyclohexyl]-methanesulfonamide] |
| 246.5 to 247 °C | COc1cccc2c1cnn2-c1ccnc(N[C@H]2CC[C@H](C(=O)N3CCCC3)CC2)n1 [Compound 125, {4-[4-(4-methoxy-indazol-1-yl)-pyrimidin-2-ylamino]-cyclohexyl}-pyrrolidin-1-ylmethanone] |
| > 300 °C | Oc1cccc2c1cnn2-c1ccnc(N[C@H]2CC[C@H](O)CC2)n1 [Compound 242, 1-[2-(4-hydroxy-cyclohexylamino)-pyrimidin-4-yl]-1H-indazol-4-ol] |

| melting point | SMILES |
| --- | --- |
| 226 to 227 °C | CS(=O)(=O)CCCOc1cccc2c1ccn2-c1ccnc(N[C@H]2CC[C@H](NS(=O)(=O)c3cccs3)CC2)n1 [Compound 294, Thiophene-2-sulfonic-acid (4-{4-[4-(3-methane-sulfonyl-propoxy)-indol-1-yl]-pyrimidin-2-ylamino}-cyclohexyl)-amide] |
| 250 to 251 °C | CC(C)(O)c1cccc2c1cnn2-c1ccnc(N[C@H]2CC[C@H](NS(C)(=O)=O)CC2)n1 [Compound 212, N-(4-{4-[4-(2-hydroxy-prop-2-yl)-indazol-1-yl]-pyrimidin-2-ylamino}-cyclohexyl)-methanesulfonamide] |
| 172 to 173.9 °C | O[C@H]1CC[C@H](Nc2nccc(-c3noc4ccc(F)cc34)n2)CC1 [Compound 83, 4-[4-(5-fluorobenzo[d]-isoxazol-3-yl)-pyrimidin-2-ylamino]-cyclohexanol] |
| 268.1 to 269.1 °C | CS(=O)(=O)N[C@H]1CC[C@H](Nc2nccc(-n3ncc4c(OCCO)cccc43)n2)CC1 [Compound 141, N-(4-{4-[4-(2-hydroxy-ethoxy)-indazol-1-yl]-pyrimidin-2-ylamino}-cyclohexyl)-methane-sulfonamide] |
| 154 to 156.5 °C | COCCOCc1cccc2c1ccn2-c1ccnc(N[C@H]2CC[C@H](N(C)S(C)(=O)=O)CC2)n1 [Compound 160, N-(4-{4-[4-(2-methoxy-ethoxymethyl)-indol-1-yl]-pyrimidin-2-ylamino}-cyclohexyl)-N-methyl-methane-sulfonamide] |
| 288 to 289.5 °C | CC(=O)Nc1ccc2cnn(-c3ccnc(N[C@H]4CC[C@H](O)CC4)n3)c2c1 [Example 19, trans-N-{1-[2-(4-Hydroxycyclohexylamino)-pyrimidin-4-yl]-1H-indazol-6-yl}-acetamide] |
| 263 to 264 °C | CS(=O)(=O)CCCOc1cccc2c1ccn2-c1ccnc(N[C@H]2CC[C@H](NC(=O)CCN)CC2)n1.Cl |
| 168 to 169 °C | O=C([C@H]1CC[C@H](Nc2nccc(-n3ccc4c(C5(O)CCOCC5)cccc43)n2)CC1)N1CCC(O)CC1 [Compound 232, (4-hydroxy-piperidin-1-yl)-(4-{4-[4-(4-hydroxy-tetrahydro-pyran-4-yl)-indol-1-yl]-pyrimidin-2-ylamino}-cyclohexyl)-methanone] |
| 187.8 to 189 °C | CN([C@H]1CC[C@H](Nc2nccc(-n3ccc4c(CC#N)cccc43)n2)CC1)S(C)(=O)=O [Compound 163, N-{4-[4-(4-cyano-methyl-indol-1-yl)-pyrimidin-2-ylamino]-cyclohexyl}-N-methyl-methanesulfonamide] |
| 230 to 231 °C | C[C@@H]1CCCN1C(=O)[C@H]1CC[C@H](Nc2nccc(-n3ncc4c(OCCCS(N)(=O)=O)cccc43)n2)CC1 (stereo in doubt) [Compound 272, 3-(1-{2-[4-(2-methyl-pyrrolidine-1-carbonyl)-cyclohexylamino]-pyrimidin-4-yl}-1H-indazol4-yloxy)-propane-1-sulfonic acid amide] |
| 169 to 170 °C | CN(C)C(=O)[C@H]1CC[C@H](Nc2nccc(-n3ccc4c(OCCCS(C)(=O)=O)cccc43)n2)CC1 [Compound 251, 4-{4-[4-(3-methane-sulfonyl-propoxy)-indol-1-yl]-pyrimidin-2-ylamino}-cyclohexane-carboxylic acid dimethylamide] |
| 204 to 205 °C | CC(C)(O)c1cccc2c1cnn2-c1ccnc(N[C@H]2CC[C@H](N3CCCS3(=O)=O)CC2)n1 [Compound 207, 2-(1-{2-[4-(1,1-dioxo-isothiazolidin-2yl)-cyclohexylamino]-pyrimidin-4-yl}-1H-indazol-4-yl)-propan-2-ol] |
| 271 to 272 °C | O=C([C@H]1CC[C@H](Nc2nccc(-n3ccc4c(C5(O)CCS(=O)(=O)CC5)cccc43)n2)CC1)N1CCC(O)CC1 [Compound 231, (4-{4-[4-(4-hydroxy-1,1-dioxo-hexahydro-thiopyran-4-yl)-indol-1-yl]-pyrimidin-2-yl-amino}-cyclohexyl)-(4-hydroxy-piperidin-1-yl)-methanone] |
| 201 to 202 °C | N#CCCCOc1cccc2c1cnn2-c1ccnc(N[C@H]2CC[C@H](C(=O)N3CCC(O)CC3)CC2)n1 [Compound 226, 4-(1-{2-[4-(4-hydroxy-piperidine-1-carbonyl)-cyclohexylamino]-pyrimidin-4-yl}-1H-indazol-4-yloxy)-butyro-nitrile] |
| 244.5 to 245.3 °C | CC(O)c1cccc2c1ccn2-c1ccnc(N[C@H]2CC[C@H](NS(C)(=O)=O)CC2)n1 (some centres unmarked) [Compound 135, N-(4-{4-[4-(1-hydroxy-ethyl)-indol-1-yl]-pyrimidin-2-ylamino}-cyclohexyl)-methane-sulfonamide] |

| SMILES | melting point |
| --- | --- |
| CS(=O)(=O)N[C@H]1CC[C@H](Nc2nccc(-n3ccc4c(OCCCC(F)(F)F)cccc43)n2)CC1 [Compound 235, N-(4-{4-[4-(4,4,4-tri-fluoro-butoxy)-indol-1-yl]-pyrimidin-2-yl-amino}-cyclohexyl)-methanesulfonamide] | 241 to 242 °C |
